Experimental data as given in ChEMBL document CHEMBL4831526, “Cytotoxic Guaianolide Sesquiterpenoids from Ainsliaea fragrans” (J Nat Prod, 2021).

Legend:
Format in all cases: functional, cell-based
C6 = test: Cytotoxicity against rat C6 cells assessed as reduction in cell viability incubated for 72 hrs by Celltiter-Glo assay; settings: C6, 72 h
[1] = Cytotoxicity against human HCCLM3 cells assessed as reduction in cell viability incubated for 72 hrs by Celltiter-Glo assay; settings: HCCLM3, 72 h
HeLa = test: Cytotoxicity against human HeLa cells assessed as reduction in cell viability incubated for 72 hrs by Celltiter-Glo assay
Huh-7 = test: Cytotoxicity against human Huh-7 cells assessed as reduction in cell viability incubated for 72 hrs by Celltiter-Glo assay; settings: Huh-7, 72 h
PANC-1 = test: Cytotoxicity against human PANC-1 cells assessed as reduction in cell viability incubated for 72 hrs by Celltiter-Glo assay; settings: PANC-1, 72 h

Row | SMILES | IC50 (C6) [µM] | IC50 [1] [µM] | IC50 (HeLa) [µM] | IC50 (Huh-7) [µM] | IC50 (PANC-1) [µM]
1 | C=C1C(=O)C2=C3[C@H](CC[C@H]4C(=C)C(=O)O[C@@H]4[C@@H]13)CC[C@@]21C(=O)C2=C3[C@H]1[C@H]1OC(=O)C(=C)[C@@H]1CC[C@@]3(O)CC[C@]21C(=O)C[C@H]2C(=C)CC[C@H]3C(=C)C(=O)O[C@@H]3[C@H]21 | 2.1 | > 10 | 7 | 7.5 | 2.5
2 | C=C1C(=O)C2=C3[C@H]1[C@H]1OC(=O)C(CO)=C1CC[C@]3(O)CC[C@]21C(=O)C[C@H]2C(=C)CC[C@H]3C(=C)C(=O)O[C@@H]3[C@H]21 | 9.9 | > 10 | > 10 | > 10 | > 10
3 | C=C1C(=O)C2=C3[C@H]1[C@H]1OC(=O)C(=C)[C@@H]1CC[C@]3(O)CC[C@]21C(=O)C[C@H]2C(=C)CC[C@H]3C(=C)C(=O)O[C@@H]3[C@H]21 | 1.2 | > 10 | 2.8 | 2.5 | 2.2
4 | C=C1C(=O)C2=C3[C@H]1[C@H]1OC(=O)C(=C)[C@@H]1CC[C@]3(O)CC[C@]21C(=O)[C@H](C[C@@H]2C(=O)C[C@H]3C(=C)CC[C@H]4C(=C)C(=O)O[C@@H]4[C@@H]23)[C@H]2C(=C)CC[C@H]3C(=C)C(=O)O[C@@H]3[C@H]21 | 0.7 | 8.3 | 1.3 | 2.5 | 0.4
5 | C=C1C(=O)O[C@@H]2[C@@H]3C4=C(C(=O)[C@H]3CO)[C@]3(CC[C@]4(O)CC[C@@H]12)C(=O)C[C@H]1C(=C)CC[C@H]2C(=C)C(=O)O[C@@H]2[C@H]13 | > 10 | > 10 | > 10 | > 10 | > 10
6 | C=C1C(=O)C2=C3[C@H]1[C@H]1OC(=O)C(=C)[C@@H]1CC[C@@]3(O)CC[C@]21C(=O)C[C@H]2C(=C)CC[C@H]3C(=C)C(=O)O[C@@H]3[C@H]21 | > 10 | > 10 | > 10 | > 10 | 5.4
7 | C=C1C(=O)O[C@@H]2[C@@H]3C4=C(C(=O)[C@H]3C)[C@]3(CC[C@@]4(O)CC[C@@H]12)C(=O)C[C@H]1C(=C)CC[C@@H]2[C@H](OC(=O)[C@H]2C)[C@H]13 | 3.1 | > 10 | 6.5 | 4.1 | 4.9
8 | C=C1C(=O)O[C@@H]2[C@@H]3[C@@H](C[C@@]4(O)[C@]3(O)CC[C@]43C(=O)C[C@H]4C(=C)CC[C@H]5C(=C)C(=O)O[C@@H]5[C@H]43)C(=C)CC[C@@H]12 | 4.3 | > 10 | 5.3 | 4.4 | 9.9
9 | C=C1C(=O)C2=C3[C@H](CC[C@H]4C(=C)C(=O)O[C@@H]4[C@@H]13)CC[C@]21C(=O)C[C@H]2C(=C)CC[C@H]3C(=C)C(=O)O[C@@H]3[C@H]21 | > 10 | > 10 | > 10 | > 10 | > 10
10 | C=C1C(=O)C2=C3[C@@H](CC[C@H]4C(=C)C(=O)O[C@@H]4[C@@H]13)CC[C@]21C(=O)C[C@H]2C(=C)CC[C@H]3C(=C)C(=O)O[C@@H]3[C@H]21 | 6.4 | > 10 | > 10 | > 10 | > 10
